Measurements as given in patent US20210355107A1, “MULTI-SUBSTITUTED PYRIDONE DERIVATIVES AND MEDICAL USE THEREOF” (Beijing Yuezhikangtai Biomedicines Co., Ltd., priority 2018, published 2021).

Target: T1, tyrosine kinase Mer (Homo sapiens, UniProt Q12866)
T1 construct: purchased Carna 08-108
T1 sequence (Q12866 528-999 limits assumed): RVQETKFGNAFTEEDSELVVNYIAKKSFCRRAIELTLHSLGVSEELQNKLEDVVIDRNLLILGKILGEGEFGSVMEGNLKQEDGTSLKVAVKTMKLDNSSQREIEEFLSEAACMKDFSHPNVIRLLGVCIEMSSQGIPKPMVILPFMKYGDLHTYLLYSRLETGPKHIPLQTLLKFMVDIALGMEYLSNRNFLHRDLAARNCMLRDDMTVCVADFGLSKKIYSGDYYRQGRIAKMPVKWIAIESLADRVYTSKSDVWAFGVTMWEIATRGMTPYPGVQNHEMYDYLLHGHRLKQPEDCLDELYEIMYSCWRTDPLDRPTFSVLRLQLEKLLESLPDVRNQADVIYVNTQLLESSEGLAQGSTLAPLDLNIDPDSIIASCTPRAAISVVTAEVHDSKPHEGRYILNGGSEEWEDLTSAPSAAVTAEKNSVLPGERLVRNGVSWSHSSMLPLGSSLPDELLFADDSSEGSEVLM
Assay: HTRF assay, inhibitory activity against tyrosine kinase Mer
Assay type: biochemical
Settings: ATP at Km (30 μM), two duplicate wells
Protocol: Test Example 2: Evaluation of Inhibitory Activity (IC50) of Compounds disclosed herein against Tyrosine Kinases Mer and Tyro3
In this test, HTRF method was used to test the inhibitory activity of compounds when ATP concentrations correspond to the Km of the kinases. The control substance was RXDX-106. The concentration of test compound was 3-fold diluted from an initial concentration of 10 μM, and two duplicate wells were set.
Kinase Mer (Carna, Cat. No. 08-108, Lot. No. 14CBS-0421H); Tyro3 (Carna, Cat. No. 08-109, Lot. No. 08CBS-1186H); HTRF kinase-TK kit (Cisbio, Cat. No. 62TK0PEC), the kit comprising: biotin-TK substrate lyophilized powder (Cisbio, Cat. No. 61TK0BLC, Lot. No. 07A), streptavidin-XL665 (Cisbio, Cat. No. 610SAXLG, Lot. No. 126A), TK antibody-cryptate (Cisbio, Cat. No. 610SAXLG, Lot. No. 04A), and detection buffer (including EDTA) (Cisbio, Cat. No. 62TK0PEC, Lot. No. 12A); ATP (Sigma, Cat. No. A7699-5G, CAS No. 34369-07-8, Lot. No. SLBQ6014V); DMSO (Sigma, Cat. No. D5879-1L, Lot. No. SHBH9944); HEPES (Sigma, Cat. No. V900477-500G, CAS No. 7365-45-9, Lot. No. WXBC4716V); MgCl2 (Sigma, Cat. No. 208337-1KG, Lot. No. MKBX9508V); EGTA (Sigma, Cat. No. E3889-100g, CAS 67-42-5, […], Lot. No. SLBG8546V); NP-40 (Beijing Dingguo, Cat. No. DH218, Lot. No. 36R00160); DTT (Sigma, Cat. No. D0632-25g, CAS No. 3483-12-3, Lot. No. SLBF3964V); compound plate (Labcyte, Cat. No. LP0200, Lot. No. 0006386836); assay plate (Greiner, Cat. No. 784075, Lot. No. E16123HM); control substance RXDX-106 (prepared according to the method disclosed in patent WO2013074633).
1) Preparation of a buffer: 50 mM HEPES, 10 mM MgCl2, 1 mM EGTA, 0.01% NP-40, 2 mM DTT.
2) Preparation of control substance and test samples: RXDX-106 and the compounds disclosed herein were each dissolved in DMSO to 10 mM and then diluted to 1 mM or an appropriate concentration with DMSO, and then serial double dilution was performed using BRAVO (Agilent). 100 nL of each was transferred from a compound plate (Labcyte-LP0200) to an assay plate (Greiner-784075) using ECHO 555 (Labcyte). The final concentration of DMSO was 1%.
3) Mer and Tyro3 were each diluted to 0.5 nM and 1.2 nM with the detection buffer (Cisbio, Cat. No. 62TK0PEC, Lot. No. 12A). 5 μL of each was added to a 384-well plate and incubated with the compounds disclosed herein for 30 min at 22-25° C. Final concentrations of Mer and Tyro3 were 0.25 nM and 0.6 nM, respectively.
4) Biotin-TK substrate and ATP were each diluted to a concentration twice the final concentration with 1× kinase buffer made up of HEPES, NaN3, BSA and orthovanadate. 5 μL of the mixture of substrate and ATP was added to the 384-well plate to initiate the reaction, which lasts for 1 h at 22-25° C.
5) Streptavidin-XL665 and TK antibody-cryptate were diluted to 250 nM and 0.5 nM, respectively, with the detection buffer. […] of each of the two solutions was added to the 384-well plate to initiate the reaction, which lasts for 1 h at 22-25° C. The final concentrations of streptavidin-XL665 and TK antibody-cryptate were 125 nM and 0.25 nM, respectively.
6) The fluorescence intensities at 665 nm and 615 nm were read with an Envision Reader (PerkinElmer) .
7) IC50 values of the compounds were fitted with XL-fit software.

Row | Structure (SMILES) | IC50 [nM]
1 | CCn1cc(-c2cnc(N)c(-c3cc(F)c(NC(=O)c4cn(C(C)C)c(C#N)c(-c5ccc(F)cc5)c4=O)cc3F)c2)cn1 [Example 33, N-(4-(2-amino-5-(1-ethyl-1H-pyrazol-4-yl)pyridin-3-yl)-2,5-difluorophenyl)-6-cyano-5-(4-fluorophenyl)-1-isopropyl-4-oxo-1,4-dihydropyridine-3-carboxamide] | 0.92
2 | [2H]C([2H])([2H])n1cc(-c2cnc(N)c(-c3cc(F)c(NC(=O)c4cn(C(C)C)c(C#N)c(-c5ccc(F)cc5)c4=O)cc3F)c2)cn1 [Example 34, N-(4-(2-amino-5-(1-methyl-d3-1H-pyrazol-4-yl)pyridin-3-yl)-2,5-difluorophenyl)-6-cyano-5-(4-fluorophenyl)-1-isopropyl-4-oxo-1,4-dihydropyridine-3-carboxamide] | 1.16
3 | CC(C)n1cc(C(=O)Nc2ccc(-c3cc(-c4cnn(C5CCNCC5)c4)cnc3N)c(F)c2)c(=O)c(-c2ccc(F)cc2)c1C#N [Example 2, N-(4-(2-amino-5-(1-(piperidin-4-yl)-1H-pyrazol-4-yl)pyridin-3-yl)-3-fluorophenyl)-6-cyano-5-(4-fluorophenyl)-1-isopropyl-4-oxo-1,4-dihydropyridine-3-carboxamide] | 0.62
4 | COc1cc2nccc(Oc3ccc(NC(=O)c4cn(C(C)C)c(C#N)c(-c5ccc(F)cc5)c4=O)cc3F)c2cc1OC [Example 24, 6-cyano-N-(4-((6,7-dimethoxyquinolin-4-yl)oxy)-3-fluoro-phenyl)-5-(4-fluorophenyl)-1-isopropyl-4-oxo-1,4-dihydropyridine-3-carboxamide] | 11.4
5 | CCn1cc(-c2cnc(N)c(-c3ccc(NC(=O)c4cn(C5CC5)c(C#N)c(-c5ccc(F)cc5)c4=O)cc3F)c2)cn1 [Example 10, N-(4-(2-amino-5-(1-ethyl-1H-pyrazol-4-yl)pyridin-3-yl)-3-fluorophenyl)-6-cyano-5-(4-fluorophenyl)-1-cyclopropyl-4-oxo-1,4-dihydropyridine-3-carboxamide] | 2.17
6 | CC(C)n1cc(C(=O)Nc2ccc(-c3cc(-c4cnn(C)c4)cnc3N)c(F)c2)c(=O)c(-c2ccc(F)cc2)c1C#N [Example 4, N-(4-(2-amino-5-(1-methyl-1H-pyrazol-4-yl)pyridin-3-yl)-3-fluorophenyl)-6-cyano-5-(4-fluorophenyl)-1-isopropyl-4-oxo-1,4-dihydropyridine-3-carboxamide] | 0.78
7 | CCn1cc(-c2cnc(N)c(-c3ccc(NC(=O)c4cn(C(C)C)c(C#N)c(-c5ccc(F)cc5)c4=O)cc3F)c2)cn1 [Example 3, N-(4-(2-amino-5-(1-ethyl-1H-pyrazol-4-yl)pyridin-3-yl)-3-fluoro-phenyl)-6-cyano-5-(4-fluorophenyl)-1-isopropyl-4-oxo-1,4-dihydropyridine-3-carboxamide] | 1.11
8 | CC(C)n1cc(C(=O)Nc2cc(F)c(-c3cc(-c4cnn(C)c4)cnc3N)cc2F)c(=O)c(-c2ccc(F)cc2)c1C#N [Example 6, N-(4-(2-amino-5-(1-methyl-1H-pyrazol-4-yl)pyridin-3-yl)-2,5-difluorophenyl)-6-cyano-5-(4-fluorophenyl)-1-isopropyl-4-oxo-1,4-dihydropyridine-3-carboxamide] | 1.17
9 | CC(C)n1cc(C(=O)Nc2ccc(-c3cc(-c4cnn(C5CCN(C)CC5)c4)cnc3N)c(F)c2)c(=O)c(-c2ccc(F)cc2)c1C#N [Example 7, N-(4-(2-amino-5-(1-(1-methylpiperidin-4-yl)-1H-pyrazol-4-yl)-pyridin-3-yl)-3-fluorophenyl)-6-cyano-5-(4-fluorophenyl)-1-isopropyl-4-oxo-1,4-dihydro-pyridine-3-carboxamide] | 0.63
